Where two headings read alike, the source gives them in different places.
Assays:
[1] = target: T1, AEA-DA lipid probe targets in Neuro2a cells (Mus musculus, UniProt Q6GV12)
T1 sequence (Q6GV12 26-332): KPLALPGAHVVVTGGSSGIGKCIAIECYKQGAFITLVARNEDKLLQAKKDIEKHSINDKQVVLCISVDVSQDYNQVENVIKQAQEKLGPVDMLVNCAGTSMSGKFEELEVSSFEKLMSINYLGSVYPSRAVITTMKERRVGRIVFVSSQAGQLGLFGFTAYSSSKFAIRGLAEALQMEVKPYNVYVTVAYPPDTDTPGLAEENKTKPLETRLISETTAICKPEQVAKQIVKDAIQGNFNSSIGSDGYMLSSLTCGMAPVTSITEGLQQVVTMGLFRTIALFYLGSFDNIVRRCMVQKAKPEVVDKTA

[2] = target: T2, AEA-DA lipid probe targets in Neuro2a cells (Mus musculus, UniProt Q8R0X7); conditions: for SILAC ratio, SGPL1 (O95470): Neuro2a cells, AEA-DA probe
T2 sequence (Q8R0X7 1-568): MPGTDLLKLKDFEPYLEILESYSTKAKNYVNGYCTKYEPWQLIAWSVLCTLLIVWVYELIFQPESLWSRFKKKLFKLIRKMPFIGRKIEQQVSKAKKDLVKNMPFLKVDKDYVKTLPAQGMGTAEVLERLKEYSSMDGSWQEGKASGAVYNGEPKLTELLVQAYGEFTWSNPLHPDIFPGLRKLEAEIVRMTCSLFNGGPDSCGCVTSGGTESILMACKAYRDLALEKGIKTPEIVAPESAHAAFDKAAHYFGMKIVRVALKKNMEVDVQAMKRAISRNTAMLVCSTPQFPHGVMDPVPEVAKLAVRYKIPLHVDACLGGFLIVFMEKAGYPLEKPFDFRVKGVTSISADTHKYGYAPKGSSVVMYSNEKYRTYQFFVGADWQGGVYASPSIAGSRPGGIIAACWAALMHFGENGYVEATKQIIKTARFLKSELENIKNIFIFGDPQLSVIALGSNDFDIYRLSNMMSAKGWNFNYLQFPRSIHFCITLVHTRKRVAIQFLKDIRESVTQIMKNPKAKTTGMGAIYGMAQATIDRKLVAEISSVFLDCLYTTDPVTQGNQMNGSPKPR

[3] = target: AEA-DA lipid probe targets in Neuro2a cells (Mus musculus, UniProt O88696)
[4] = target: T3, AEA-DA lipid probe targets in Neuro2a cells (Mus musculus, UniProt Q3V009)
T3 sequence (Q3V009 25-227): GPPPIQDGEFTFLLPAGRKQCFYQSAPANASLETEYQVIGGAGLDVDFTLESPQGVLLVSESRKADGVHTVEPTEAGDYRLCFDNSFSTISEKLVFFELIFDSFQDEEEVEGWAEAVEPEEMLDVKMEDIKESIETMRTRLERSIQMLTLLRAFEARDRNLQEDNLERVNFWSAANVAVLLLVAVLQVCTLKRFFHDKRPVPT

[5] = target: T4, AEA-DA lipid probe targets in Neuro2a cells (Mus musculus, UniProt Q924D0); conditions: protein Rtn4ip1, Neuro2a cells
T4 sequence (Q924D0 41-396): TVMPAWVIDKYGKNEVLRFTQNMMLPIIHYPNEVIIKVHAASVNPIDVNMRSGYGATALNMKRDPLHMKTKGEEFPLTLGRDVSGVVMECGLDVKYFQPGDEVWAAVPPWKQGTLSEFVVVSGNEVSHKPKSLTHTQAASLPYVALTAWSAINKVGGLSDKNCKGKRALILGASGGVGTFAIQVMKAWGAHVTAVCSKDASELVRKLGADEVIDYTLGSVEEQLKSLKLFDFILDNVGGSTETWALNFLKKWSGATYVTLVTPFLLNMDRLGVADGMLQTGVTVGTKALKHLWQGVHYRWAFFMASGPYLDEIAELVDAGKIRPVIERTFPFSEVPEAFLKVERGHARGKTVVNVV

[6] = target: AEA-DA lipid probe targets in Neuro2a cells (Mus musculus, UniProt Q9DCH4)
[7] = target: T5, AEA-DA lipid probe targets in Neuro2a cells (Mus musculus, UniProt Q8R404)
T5 sequence (Q8R404 1-119): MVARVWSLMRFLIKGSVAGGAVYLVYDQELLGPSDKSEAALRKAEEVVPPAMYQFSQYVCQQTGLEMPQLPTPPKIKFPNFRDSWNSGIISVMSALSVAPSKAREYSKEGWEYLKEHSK

[8] = target: T6, AEA-DA lipid probe targets in Neuro2a cells (Mus musculus, UniProt Q9JMF7)
T6 sequence (Q9JMF7 1-238): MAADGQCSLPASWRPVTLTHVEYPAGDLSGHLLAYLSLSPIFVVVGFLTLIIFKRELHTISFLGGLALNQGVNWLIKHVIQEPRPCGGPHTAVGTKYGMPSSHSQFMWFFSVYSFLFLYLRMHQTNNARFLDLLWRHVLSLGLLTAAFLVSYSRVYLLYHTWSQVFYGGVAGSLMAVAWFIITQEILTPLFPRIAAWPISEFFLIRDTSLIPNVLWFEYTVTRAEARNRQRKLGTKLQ

[9] = target: AEA-DA lipid probe targets in Neuro2a cells (Mus musculus, UniProt Q91WD5)
[10] = target: T7, AEA-DA lipid probe targets in Neuro2a cells (Mus musculus, UniProt O70252); conditions: for SILAC ratio, HMOX2 (P30519): Neuro2a cells, AEA-DA probe
T7 sequence (O70252 1-315): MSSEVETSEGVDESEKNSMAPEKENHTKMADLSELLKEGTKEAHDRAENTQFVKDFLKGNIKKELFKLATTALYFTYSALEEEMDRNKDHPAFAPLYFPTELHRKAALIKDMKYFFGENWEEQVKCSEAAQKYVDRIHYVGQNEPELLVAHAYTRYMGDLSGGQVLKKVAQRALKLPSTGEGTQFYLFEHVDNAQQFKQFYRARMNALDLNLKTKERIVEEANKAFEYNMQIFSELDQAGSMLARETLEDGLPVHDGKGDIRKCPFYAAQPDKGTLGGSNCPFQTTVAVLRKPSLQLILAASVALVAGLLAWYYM

Chain of AEA-DA lipid probe targets in Neuro2a cells (Mus musculus, UniProt Q9DCH4) (Q9DCH4 whole entry): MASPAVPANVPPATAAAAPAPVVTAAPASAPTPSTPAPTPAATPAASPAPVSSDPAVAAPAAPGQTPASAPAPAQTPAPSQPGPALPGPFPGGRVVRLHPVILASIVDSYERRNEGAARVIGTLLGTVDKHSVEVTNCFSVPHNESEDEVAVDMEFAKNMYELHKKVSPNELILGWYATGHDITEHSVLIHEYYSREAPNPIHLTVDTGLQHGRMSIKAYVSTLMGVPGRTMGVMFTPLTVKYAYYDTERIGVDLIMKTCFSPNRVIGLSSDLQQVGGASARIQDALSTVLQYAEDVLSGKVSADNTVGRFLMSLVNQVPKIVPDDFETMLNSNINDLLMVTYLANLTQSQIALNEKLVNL
Chain of AEA-DA lipid probe targets in Neuro2a cells (Mus musculus, UniProt Q91WD5) (Q91WD5 34-463): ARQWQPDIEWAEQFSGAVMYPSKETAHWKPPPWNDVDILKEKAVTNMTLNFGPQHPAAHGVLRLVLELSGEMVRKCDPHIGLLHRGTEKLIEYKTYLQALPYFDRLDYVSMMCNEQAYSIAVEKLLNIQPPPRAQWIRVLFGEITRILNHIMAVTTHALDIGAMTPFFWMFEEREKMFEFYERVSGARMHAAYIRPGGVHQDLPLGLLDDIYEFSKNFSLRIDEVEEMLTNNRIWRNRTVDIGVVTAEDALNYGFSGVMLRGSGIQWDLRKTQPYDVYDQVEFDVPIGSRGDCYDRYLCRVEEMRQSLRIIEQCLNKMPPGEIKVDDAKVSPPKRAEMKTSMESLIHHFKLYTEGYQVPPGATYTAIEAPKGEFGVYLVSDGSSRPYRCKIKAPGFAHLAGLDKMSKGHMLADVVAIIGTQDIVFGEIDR
Chain of AEA-DA lipid probe targets in Neuro2a cells (Mus musculus, UniProt O88696) (O88696 53-272): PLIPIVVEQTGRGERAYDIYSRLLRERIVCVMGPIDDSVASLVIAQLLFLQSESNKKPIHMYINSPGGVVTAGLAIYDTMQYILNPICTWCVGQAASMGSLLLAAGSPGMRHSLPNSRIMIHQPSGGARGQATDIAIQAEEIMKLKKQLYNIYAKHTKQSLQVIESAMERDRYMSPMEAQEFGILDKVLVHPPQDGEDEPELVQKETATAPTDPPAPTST

CCCCC/C=C\C/C=C\C/C=C\C/C=C\CCCC(=O)NCCO [AEA, anandamide, reference compound]
SILAC ratio, Kdsr ([1]; competitor 200 μM): 3.6
SILAC ratio, SGPL1 (O95470) ([2]; competitor 200 μM): 2.7
SILAC ratio, Sgpl1 ([2]; competitor 200 μM): 2.7
SILAC ratio Clpp ([3]; competitor 200 μM): 1.4
SILAC ratio, Tmed1 ([4]; competitor 200 μM): 2.1
SILAC ratio (AEA-DA competition) ([5]; competitor 200 μM): 1.0
SILAC ratio Eif3f ([6]; competitor 200 μM): 1.4
SILAC ratio, Qil1 ([7]; competitor 200 μM): 1.9
SILAC ratio, Dolpp1 ([8]; competitor 200 μM): 2.2
SILAC ratio Ndufs2 ([9]; competitor 200 μM): 1.3
SILAC ratio, HMOX2 (P30519) ([10]; competitor 200 μM): 3.2
SILAC ratio, Hmox2 ([10]; competitor 200 μM): 3.2

O=C(/C=C/c1cccnc1)NCCCCC1CCN(C(=O)c2ccccc2)CC1 [FK-866, reference compound]
SILAC ratio, Kdsr ([1]; competitor 25 μM): 1.1
SILAC ratio, SGPL1 (O95470) ([2]; competitor 25 μM): 1.7
SILAC ratio, Sgpl1 ([2]; competitor 25 μM): 1.7
SILAC ratio Clpp ([3]; competitor 25 μM): 1.0
SILAC ratio, Tmed1 ([4]; competitor 25 μM): 1.3
SILAC ratio Eif3f ([6]; competitor 25 μM): 1.3
SILAC ratio, Qil1 ([7]; competitor 25 μM): 1.2
SILAC ratio, Dolpp1 ([8]; competitor 25 μM): 1.2
SILAC ratio Ndufs2 ([9]; competitor 25 μM): 1.7
SILAC ratio, HMOX2 (P30519) ([10]; competitor 25 μM): 1.0
SILAC ratio, Hmox2 ([10]; competitor 25 μM): 1.0

CN1CCN(C(=O)c2c(-c3ccccc3)c3cc([N+](=O)[O-])ccc3n2C)CC1 [KML110, (1-Methyl-5-nitro-3-phenyl-1H-indol-2-yl)(4-methylpiperazin-1-yl)methanone]
SILAC ratio, Kdsr ([1]; competitor 25 μM): 1.6
SILAC ratio, Sgpl1 ([2]; competitor 25 μM): 1.4
SILAC ratio Clpp ([3]; competitor 25 μM): 2.4
SILAC ratio, Tmed1 ([4]; competitor 25 μM): 1.6
SILAC ratio Eif3f ([6]; competitor 25 μM): 1.3
SILAC ratio, Qil1 ([7]; competitor 25 μM): 1.5
SILAC ratio, Dolpp1 ([8]; competitor 25 μM): 1.6
SILAC ratio Ndufs2 ([9]; competitor 25 μM): 1.3
SILAC ratio, Hmox2 ([10]; competitor 25 μM): 1.5

CN1CCN(C(=O)c2[nH]c3ccc([N+](=O)[O-])cc3c2-c2ccccc2)CC1 [MJN228, (4-Methylpiperazin-1-yl)(5-nitro-3-phenyl-1H-indol-2-yl)methanone]
SILAC ratio, Kdsr ([1]; competitor 10 μM): 1.1
SILAC ratio, Kdsr ([1]; competitor 25 μM): 1.5
SILAC ratio, Kdsr ([1]; competitor 50 μM): 1.3
SILAC ratio, Kdsr ([1]; competitor 100 μM): 1.7
SILAC ratio, SGPL1 (O95470) ([2]; competitor 25 μM): 1.5
SILAC ratio, Sgpl1 ([2]; competitor 10 μM): 1.3
SILAC ratio, Sgpl1 ([2]; competitor 25 μM): 1.5
SILAC ratio, Sgpl1 ([2]; competitor 50 μM): 1.8
SILAC ratio, Sgpl1 ([2]; competitor 100 μM): 2.7
SILAC ratio Clpp ([3]; competitor 10 μM): 1.4
SILAC ratio Clpp ([3]; competitor 25 μM): 2.1
SILAC ratio Clpp ([3]; competitor 50 μM): 3.6
SILAC ratio Clpp ([3]; competitor 100 μM): 9.0
SILAC ratio, Tmed1 ([4]; competitor 10 μM): 1.1
SILAC ratio, Tmed1 ([4]; competitor 25 μM): 1.6
SILAC ratio, Tmed1 ([4]; competitor 50 μM): 2.1
SILAC ratio, Tmed1 ([4]; competitor 100 μM): 2.2
SILAC ratio (AEA-DA competition) ([5]; competitor 10 μM): 1.0
SILAC ratio (AEA-DA competition) ([5]; competitor 25 μM): 1.4
SILAC ratio Eif3f ([6]; competitor 10 μM): 1.0
SILAC ratio Eif3f ([6]; competitor 25 μM): 1.0
SILAC ratio Eif3f ([6]; competitor 100 μM): 0.9
SILAC ratio, Qil1 ([7]; competitor 10 μM): 1.2
SILAC ratio, Qil1 ([7]; competitor 25 μM): 1.5
SILAC ratio, Qil1 ([7]; competitor 50 μM): 1.7
SILAC ratio, Qil1 ([7]; competitor 100 μM): 2.5
SILAC ratio, Dolpp1 ([8]; competitor 10 μM): 1.2
SILAC ratio, Dolpp1 ([8]; competitor 25 μM): 1.6
SILAC ratio, Dolpp1 ([8]; competitor 50 μM): 1.9
SILAC ratio, Dolpp1 ([8]; competitor 100 μM): 3.3
SILAC ratio Ndufs2 ([9]; competitor 10 μM): 1.3
SILAC ratio Ndufs2 ([9]; competitor 25 μM): 1.3
SILAC ratio Ndufs2 ([9]; competitor 100 μM): 1.1
SILAC ratio, HMOX2 (P30519) ([10]; competitor 25 μM): 1.4
SILAC ratio, Hmox2 ([10]; competitor 10 μM): 1.1
SILAC ratio, Hmox2 ([10]; competitor 25 μM): 1.4
SILAC ratio, Hmox2 ([10]; competitor 50 μM): 1.3
SILAC ratio, Hmox2 ([10]; competitor 100 μM): 1.7

C=CCN(C)CCCCCCOc1ccc(C(=O)c2ccc(Br)cc2)c(F)c1 [Ro 48-8071, reference compound]
SILAC ratio, Kdsr ([1]; competitor 25 μM): 1.6
SILAC ratio, SGPL1 (O95470) ([2]; competitor 25 μM): 1.2
SILAC ratio, Sgpl1 ([2]; competitor 25 μM): 1.2
SILAC ratio Clpp ([3]; competitor 25 μM): 0.9
SILAC ratio, Tmed1 ([4]; competitor 25 μM): 1.2
SILAC ratio (AEA-DA competition) ([5]; competitor 25 μM): 0.7
SILAC ratio Eif3f ([6]; competitor 25 μM): 0.9
SILAC ratio, Qil1 ([7]; competitor 25 μM): 1.2
SILAC ratio, Dolpp1 ([8]; competitor 25 μM): 1.3
SILAC ratio Ndufs2 ([9]; competitor 25 μM): 1.2
SILAC ratio, HMOX2 (P30519) ([10]; competitor 25 μM): 1.3
SILAC ratio, Hmox2 ([10]; competitor 25 μM): 1.3

— US10168342B2, “Lipid probes and uses thereof” (THE SCRIPPS RESEARCH INSTITUTE, priority 2015, dated 2019)
